Series [1] can be described thus: In vivo pharmacokinetic study in rats, intravenous DUT without or with intravenous KET. Further details: species or system rat. Conditions: for AUC(0-inf) / half-life / clearance / Vd: male, Sprague-Dawley, rat, iv, 2.5 mg/kg; for AUC(0-inf) / half-life: n = 4; for Vd: n = 4, read-out: Vss. From the text: The animal experiment protocols used in the present study were approved by the Pusan National University-Institutional Animal Care and Use Committee for scientific care and ethical procedures (Busan, Korea; approval date: 01/05/2018; approval number: PNU-2018-1848). Male Sprague–Dawley rats (8-week-old; approximately 250 g) were purchased from DBL Co., Ltd. (Incheon, Korea). The rats were acclimatized in a clean room of the Laboratory Animal Center of Pusan National University (Busan, Korea) for 1 week. Then, they were fasted for 12 h prior to the pharmacokinetic experiment and then anesthetized by intramuscular injection of Zoletil at a dose of 20 mg/kg. The femoral vein and artery of the rats were cannulated with a polyethylene tube (BD Medical; Franklin Lakes, NJ, USA). At approximately 4–6 h after the surgery for cannulation, an intravenous dose of DUT (2.5 mg/kg) simultaneously with or without intravenous KET (20 mg/kg) or an oral dose of DUT (5 mg/kg) simultaneously with or without intravenous KET (20 mg/kg) was administered to the rats. Drugs were dissolved in a vehicle consisting of dimethyl sulfoxide, ethanol, and polyethylene glycol 400 at a ratio of 10:5:85 (v/v/v). Blood (approximately 200 μL) was collected in heparin pre-treated microcentrifuge tubes via the femoral artery at 0, 1, 5, 15, 30, 60, 120, 180, 240, 360, 480, and 1200 min after the intravenous dose and at 0, 5, 15, 30, 60, 120, 150, 180, 240, 360, 480, and 1200 min after the oral dose. Following centrifugation of the blood samples at 3000× g at 4 °C for 10 min [19], 100 μL aliquots of plasma were stored at −80 °C.
The half maximal inhibitory concentration (IC50) of KET for the inhibition of the DUT metabolism was determined by the nonlinear regression analysis (GraphPad Prism ver. 5.01; GraphPad Software Inc., San Diego, CA, USA) based on the following Hill equation: y = Min + Max−Min/1 + (x/IC50)^-P where Max and Min are the initial and final y value, respectively, and the exponent P represents the Hill coefficient. Peak plasma concentration (Cmax) and time to reach Cmax (Tmax) were read directly from the observed data. Non-compartmental analysis was conducted to estimate pharmacokinetic parameters such as total area under plasma concentration versus time curve from time zero to time of last sampling (AUClast), total area under plasma concentration versus time curve from time zero to infinity (AUCinf), total plasma clearance (CL), volume of distribution at steady state (Vss), and terminal half-life (t1/2) using the NCA200 and 201 models of WinNonlin ver. 3.1 (Certara USA Inc., Princeton, NJ, USA).

A short description of series [2]: NADPH-dependent metabolism (disappearance) of DUT in rat liver microsomes. Type of series: in vitro ADME. The following applies: RLM. As to the method:
In vitro metabolism studies in RLM and HLM were conducted as previously reported with slight modifications. To investigate the NADPH-dependent metabolism (via phase I enzymes including CYPs) of DUT in RLM and HLM, the disappearance of DUT at various concentrations ranging from 1 to 100 μM in the presence of NADPH was determined in RLM and HLM. The substrate (DUT) concentration ([S]; μM) versus the initial metabolic rate (V; pmol/min/mg protein) data were interpreted based on the Michaelis–Menten kinetics, and relevant parameters were estimated by nonlinear regression analysis (GraphPad Prism ver. 5.01; GraphPad Software, San Diego, CA, USA) based on the following Michaelis–Menten equation: V = Vmax × [S]/Km + [S] where Vmax and Km are the maximal metabolic rate and Michaelis–Menten constant, respectively. The intrinsic metabolic clearance (CLint) was calculated by dividing Vmax by Km. The unbound Km (Km,u) was calculated as the Km multiplied by the unbound fraction in microsomes (fu,mic). The unbound CLint (CLint,u) was calculated as the CLint divided by the fu,mic.
To investigate the metabolic interaction potential between DUT and KET, the disappearance of DUT (5 μM) in RLM and HLM was determined under the absence and presence of KET at various concentrations ranging from 1 to 5000 nM. A microsomal reaction mixture was prepared as follows (total volume: 0.2 mL): 1 mM NADPH, 10 mM MgCl2, substrate (DUT), and inhibitor (KET), RLM or HLM (1 mg/mL), and 50 mM phosphate buffer. […] The unbound fractions of DUT in rat plasma, RLM, human plasma, and HLM were measured using a rapid equilibrium dialysis (RED) device (Thermo Fisher Scientific, Inc., Waltham, MA, USA) as described in a previous study. […] The fraction unbound was calculated as the ratio of the drug concentrations in the “buffer” chamber to those in the “sample” chamber. The blood-to-plasma concentration ratio (RB) of DUT was determined as described previously. […] The concentrations of DUT in the plasma sample were determined by the validated HPLC analysis.
In general terms: Liver microsomes are a subcellular fraction often used to study metabolism.

A short description of series [3]: Unbound fraction by rapid equilibrium dialysis, rat plasma. Type of series: in vitro ADME. As to the method: To investigate the metabolic interaction potential between DUT and KET, the disappearance of DUT (5 μM) in RLM and HLM was determined under the absence and presence of KET at various concentrations ranging from 1 to 5000 nM. A microsomal reaction mixture was prepared as follows (total volume: 0.2 mL): 1 mM NADPH, 10 mM MgCl2, substrate (DUT), and inhibitor (KET), RLM or HLM (1 mg/mL), and 50 mM phosphate buffer. At 0 and 90 min after starting the metabolic reaction, a 50 μL aliquot of microsomal incubation mixture was sampled and immediately transferred into a clean 1.5 mL microcentrifuge tube containing 100 μL cold ACN with an internal standard (celecoxib at 400 ng/mL) to stop the metabolic reaction. After vortex mixing and centrifugation at 15,000× g for 10 min, a 100 μL aliquot of the supernatant was stored at −80 °C. The unbound fractions of DUT in rat plasma, RLM, human plasma, and HLM were measured using a rapid equilibrium dialysis (RED) device (Thermo Fisher Scientific, Inc., Waltham, MA, USA) as described in a previous study. […] The fraction unbound was calculated as the ratio of the drug concentrations in the “buffer” chamber to those in the “sample” chamber. The blood-to-plasma concentration ratio (RB) of DUT was determined as described previously. […] The concentrations of DUT in the plasma sample were determined by the validated HPLC analysis.
On the technique in general: In equilibrium dialysis only unbound substance equilibrates across the membrane.

The test system of another series is type-1 5AR. Further details: method as in PMID 16964191, PMID 16719800. The following applies: previous in vitro studies; cited from earlier work.
The mark [4] stands for this setting: plasma, intravenous DUT 2.5 mg/kg with intravenous KET 20 mg/kg.
[5] abbreviates: plasma, intravenous DUT 2.5 mg/kg, DUT alone.

These results are taken from publication PMC6956158, “In Vitro and In Vivo Assessment of Metabolic Drug Interaction Potential of Dutasteride with Ketoconazole” (Pharmaceutics, 2019).

The AUC(0-inf) is total exposure, with the tail of the curve extrapolated. Higher therefore signals high exposure. The half-life is how long it takes for the measured level to halve. Read a low half-life as rapid decline. As usually defined, the microsomal CLint is a measure of how fast metabolising enzymes remove a compound, apart from limits set by blood flow. The Km is the concentration of substrate that gives half-maximal velocity. A word on the fraction unbound: it is the share of the substance not bound to proteins or other matrix.

SMILES strings stand for the structures. Where two headings read alike, the source gives them in different places.

As for `C[C@]12C=CC(=O)N[C@@H]1CC[C@@H]1[C@@H]2CC[C@]2(C)[C@@H](C(=O)Nc3cc(C(F)(F)F)ccc3C(F)(F)F)CC[C@@H]12` [DUT, Dutasteride], the hepatic extraction ratio in series [1] (calculated as CLH/QH, QH 50–80 mL/min/kg) is given as 0.039–0.062. Also, the AUC(0-inf) is 41800 ng·h/mL in series [1] (setting [4]) and 19100 ng·h/mL in series [1] (setting [5]). Also, the results for the half-life in series [1] (setting [4]) and in series [1] (setting [5]) were 51 ± 5.98 h and 26.8 ± 3.27 h, respectively. The clearance in series [1] (plasma, intravenous DUT 2.5 mg/kg with intravenous KET 20 mg/kg, n = 4, read-out: CL) is 1.02 ± 0.16 mL/min/kg; in series [1] (plasma, intravenous DUT 2.5 mg/kg, DUT alone, n = 4, read-out: CL) it was 2.19 ± 0.16 mL/min/kg; in series [1] (whole blood, intravenous DUT 2.5 mg/kg, calculated as CL/RB, mean value, read-out: total blood clearance (CLB)), 3.08 mL/min/kg. Further, the Vd was found to be 4.41 ± 0.373 L/kg in series [1] (setting [4]) and 4.9 ± 0.326 L/kg in series [1] (setting [5]). Moreover, the Vmax in series [2] (DUT 1 to 100 μM, NADPH) was found to be 114 ± 10 pmol/min/mg protein. In series [2] (Sprague-Dawley, rat, rat liver microsomes, Vmax divided by Km), this compound returned a microsomal CLint of 3.45 ± 0.37 µL/min/mg. Moreover, the Km in series [2] (rat, rat liver microsomes, DUT 1 to 100 μM, NADPH) stood at 33.3 ± 3.6 µM. In addition, the “fraction of unbound DUT, presence versus absence of KET” value in series [3] (DUT and KET 5 μM, n = 5) is reported as “no significant differences”. The compound also had a fraction unbound at 5 μM in series [3] (Sprague-Dawley, DUT 5 μM, RED device) of 0.0115. For the same compound, in the series on type-1 5AR, the “more potent inhibition of type-1 5AR compared to finasteride” value was 45 fold.
